In ChEMBL document CHEMBL1201862, “PubChem BioAssay data set” (2004):
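Protocol summary: plate cells (96-well), add compound at 5 concentrations, incubate 48 h, interpolate endpoints linearly. Abbreviation: GI50, concentration required for 50% inhibition of growth.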 Active and inactive are the calls of the source. Rule as the data show it: active = GI50 up to about 1.1 µM and inactive = higher.

How the values were obtained:
Assay in all cases: NCI anticancer screen, dose series, 48 h
OVCAR-5 = system: OVCAR-5
LOX IMVI = system: LOX IMVI
K562 = system: K562
SK-MEL-2 = system: SK-MEL-2
OVCAR-4 = system: OVCAR-4
HT-29 = system: HT-29
SF-539 = system: SF-539
UACC-257 = system: UACC-257
SR = system: SR
MOLT-4 = system: MOLT-4
M14 = system: M14
CCRF-CEM = system: CCRF-CEM
NCI-H226 = system: NCI-H226
SK-MEL-28 = system: SK-MEL-28
HCC 2998 = system: HCC 2998
A498 = system: A498
SNB-19 = system: SNB-19
UO-31 = system: UO-31
MDA-N = system: MDA-N

SMILES	GI50 (OVCAR-5)	GI50 (LOX IMVI)	GI50 (K562)	GI50 (SK-MEL-2)	GI50 (OVCAR-4)	GI50 (HT-29)	GI50 (SF-539)	GI50 (UACC-257)	GI50 (SR)	GI50 (MOLT-4)	GI50 (M14)	GI50 (CCRF-CEM)	GI50 (NCI-H226)	GI50 (SK-MEL-28)	GI50 (HCC 2998)	GI50 (A498)	GI50 (SNB-19)	GI50 (UO-31)	GI50 (MDA-N)
Cc1c(C(=O)Nc2ccc(Cl)c(C(F)(F)F)c2)oc2cc(O)ccc2/c1=N\NC(N)=S	> 100 µM (inactive)	> 100 µM (inactive)	> 100 µM (inactive)	> 100 µM (inactive)	> 100 µM (inactive)	> 100 µM (inactive)	> 100 µM (inactive)	> 100 µM (inactive)	> 100 µM (inactive)	> 100 µM (inactive)	> 100 µM (inactive)	> 100 µM (inactive)	> 100 µM (inactive)	> 100 µM (inactive)	> 100 µM (inactive)	> 100 µM (inactive)	> 100 µM (inactive)	> 100 µM (inactive)	–
Oc1cc2cc(-c3ccccc3)[nH]c2c2ccccc12	> 100 µM (inactive)	16.1 µM (inactive)	26.7 µM (inactive)	20.3 µM (inactive)	33.4 µM (inactive)	68.9 µM (inactive)	28.6 µM (inactive)	16 µM (inactive)	> 57 µM (inactive)	39.9 µM (inactive)	20.3 µM (inactive)	28.6 µM (inactive)	> 100 µM (inactive)	42.3 µM (inactive)	49.5 µM (inactive)	> 100 µM (inactive)	21.7 µM (inactive)	19.2 µM (inactive)	–
Cc1cc2c(O)c(c1)COCc1cc(C)cc(c1O)COCc1cc(C)cc(c1O)COC2	> 100 µM (inactive)	–	> 100 µM (inactive)	> 100 µM (inactive)	> 100 µM (inactive)	95.3 µM (inactive)	> 100 µM (inactive)	> 100 µM (inactive)	91 µM (inactive)	> 100 µM (inactive)	> 100 µM (inactive)	32.1 µM (inactive)	> 100 µM (inactive)	> 100 µM (inactive)	> 100 µM (inactive)	> 100 µM (inactive)	> 100 µM (inactive)	> 100 µM (inactive)	> 100 µM (inactive)
CCOC(=O)C1=C(C)NC(=O)NC1c1ccc(OC)cc1OC (centres undefined)	> 100 µM (inactive)	> 100 µM (inactive)	> 100 µM (inactive)	> 100 µM (inactive)	–	> 100 µM (inactive)	–	> 100 µM (inactive)	> 100 µM (inactive)	> 100 µM (inactive)	> 100 µM (inactive)	84.5 µM (inactive)	> 100 µM (inactive)	–	> 100 µM (inactive)	> 100 µM (inactive)	> 100 µM (inactive)	> 100 µM (inactive)	–
COc1cc(NS(=O)(=O)c2ccc(C)cc2)c2nccnc2c1	89.7 µM (inactive)	28 µM (inactive)	20.4 µM (inactive)	16.6 µM (inactive)	39.6 µM (inactive)	36.8 µM (inactive)	29.2 µM (inactive)	29.8 µM (inactive)	16.7 µM (inactive)	12.4 µM (inactive)	17 µM (inactive)	10.3 µM (inactive)	36.9 µM (inactive)	30.7 µM (inactive)	47.6 µM (inactive)	56.2 µM (inactive)	29.8 µM (inactive)	34.4 µM (inactive)	–
CCOC(=O)C1=C(Nc2cccc3ccccc23)OCC1=O	> 100 µM (inactive)	–	> 100 µM (inactive)	> 100 µM (inactive)	> 100 µM (inactive)	> 100 µM (inactive)	> 100 µM (inactive)	> 100 µM (inactive)	> 100 µM (inactive)	> 100 µM (inactive)	> 100 µM (inactive)	> 100 µM (inactive)	> 100 µM (inactive)	43.5 µM (inactive)	> 100 µM (inactive)	> 100 µM (inactive)	> 100 µM (inactive)	> 100 µM (inactive)	–
CC(=O)NC(CCCN(Cc1ccccc1)C(=O)NCCCl)C(=O)NCc1ccccc1 (centres undefined)	> 100 µM (inactive)	> 100 µM (inactive)	> 100 µM (inactive)	> 100 µM (inactive)	> 100 µM (inactive)	> 100 µM (inactive)	> 100 µM (inactive)	> 100 µM (inactive)	> 100 µM (inactive)	> 100 µM (inactive)	> 100 µM (inactive)	> 100 µM (inactive)	> 100 µM (inactive)	> 100 µM (inactive)	> 100 µM (inactive)	> 100 µM (inactive)	> 100 µM (inactive)	> 100 µM (inactive)	–
Sc1nnc(CCCCCCCCc2nnc(S)o2)o1	> 100 µM (inactive)	> 100 µM (inactive)	> 100 µM (inactive)	> 100 µM (inactive)	> 100 µM (inactive)	> 100 µM (inactive)	> 100 µM (inactive)	> 100 µM (inactive)	–	> 100 µM (inactive)	> 100 µM (inactive)	> 100 µM (inactive)	> 100 µM (inactive)	> 100 µM (inactive)	–	> 100 µM (inactive)	> 100 µM (inactive)	> 100 µM (inactive)	> 100 µM (inactive)
Cc1ccc(S(=O)(=O)N/N=C(\c2nc3ccc(Cl)cc3nc2O)C(O)c2cccc([N+](=O)[O-])c2)cc1 (centres undefined)	> 100 µM (inactive)	> 100 µM (inactive)	> 100 µM (inactive)	> 100 µM (inactive)	> 100 µM (inactive)	> 100 µM (inactive)	> 100 µM (inactive)	> 100 µM (inactive)	> 100 µM (inactive)	> 100 µM (inactive)	> 100 µM (inactive)	52.7 µM (inactive)	> 100 µM (inactive)	> 100 µM (inactive)	> 100 µM (inactive)	> 100 µM (inactive)	> 100 µM (inactive)	> 100 µM (inactive)	–
c1ccc2c(c1)CCc1c(-c3n[nH]c4c3CCc3ccccc3-4)n[nH]c1-2	> 100 µM (inactive)	> 100 µM (inactive)	27.9 µM (inactive)	> 100 µM (inactive)	–	76.7 µM (inactive)	> 100 µM (inactive)	> 100 µM (inactive)	46.9 µM (inactive)	87.9 µM (inactive)	> 100 µM (inactive)	> 100 µM (inactive)	> 100 µM (inactive)	> 100 µM (inactive)	> 100 µM (inactive)	> 100 µM (inactive)	> 100 µM (inactive)	> 100 µM (inactive)	–
O=c1c2cc(Br)ccc2n(C2OC(CO)C(O)C(O)C2O)c(=S)n1-c1ccccc1 (centres undefined)	> 100 µM (inactive)	> 100 µM (inactive)	> 100 µM (inactive)	> 100 µM (inactive)	> 100 µM (inactive)	> 100 µM (inactive)	> 100 µM (inactive)	> 100 µM (inactive)	73.3 µM (inactive)	86.7 µM (inactive)	–	–	> 100 µM (inactive)	> 100 µM (inactive)	> 100 µM (inactive)	> 100 µM (inactive)	> 100 µM (inactive)	> 100 µM (inactive)	–
Cc1ccc(S(=O)(=O)OCCC2CN(C(=O)OCc3ccccc3)C(C)(C)O2)cc1 (centres undefined)	> 100 µM (inactive)	10.8 µM (inactive)	8.63 µM (inactive)	17.7 µM (inactive)	6.68 µM (inactive)	–	12.5 µM (inactive)	7.41 µM (inactive)	4.47 µM (inactive)	2.81 µM (inactive)	7.38 µM (inactive)	14.4 µM (inactive)	0.106 µM (active)	11.4 µM (inactive)	6.07 µM (inactive)	> 100 µM (inactive)	3.83 µM (inactive)	3.69 µM (inactive)	12.5 µM (inactive)
COC(=N)C12C(N)=NC(OC)(OC)C1(C#N)C21C(=O)N(c2ccccc2)N=C1C (centres undefined)	> 100 µM (inactive)	–	> 100 µM (inactive)	> 100 µM (inactive)	> 100 µM (inactive)	> 100 µM (inactive)	> 100 µM (inactive)	> 100 µM (inactive)	37.6 µM (inactive)	> 100 µM (inactive)	> 100 µM (inactive)	36.2 µM (inactive)	> 100 µM (inactive)	> 100 µM (inactive)	> 100 µM (inactive)	> 100 µM (inactive)	> 100 µM (inactive)	> 100 µM (inactive)	> 100 µM (inactive)
CCCCc1c(C(=O)OC(C)(C)C)cc(C#Cc2cc(C(=O)OC(C)(C)C)c(CCCC)c(C(=O)OC(C)(C)C)c2)cc1C(=O)OC(C)(C)C	> 100 µM (inactive)	–	–	> 100 µM (inactive)	> 100 µM (inactive)	–	–	> 100 µM (inactive)	–	–	> 100 µM (inactive)	–	> 100 µM (inactive)	> 100 µM (inactive)	> 100 µM (inactive)	> 100 µM (inactive)	> 100 µM (inactive)	> 100 µM (inactive)	> 100 µM (inactive)
CCOC(=O)/C(=C\c1ccccc1)C(=O)O	> 100 µM (inactive)	> 100 µM (inactive)	> 100 µM (inactive)	> 100 µM (inactive)	> 100 µM (inactive)	> 100 µM (inactive)	> 100 µM (inactive)	> 100 µM (inactive)	> 100 µM (inactive)	> 100 µM (inactive)	> 100 µM (inactive)	> 100 µM (inactive)	> 100 µM (inactive)	> 100 µM (inactive)	> 100 µM (inactive)	> 100 µM (inactive)	> 100 µM (inactive)	> 100 µM (inactive)	–
CCC12C=CCN3CC[C@]4(C(=C(C(=O)OC)[C@@H]1Nc1ccn(C5OC(COC(C)=O)C(OC(C)=O)C5OC(C)=O)c(=O)n1)Nc1ccccc14)C32 (some centres undefined)	1.82 µM (inactive)	4.26 µM (inactive)	5.08 µM (inactive)	2.39 µM (inactive)	1.72 µM (inactive)	4.8 µM (inactive)	5 µM (inactive)	1.26 µM (inactive)	3.94 µM (inactive)	6.58 µM (inactive)	4.18 µM (inactive)	4.59 µM (inactive)	4.47 µM (inactive)	4.55 µM (inactive)	4.3 µM (inactive)	5.19 µM (inactive)	4.73 µM (inactive)	4.23 µM (inactive)	–
